Experimental data reported in the NIST ThermoML archive (doi:10.1016/j.jct.2003.11.008).

Legend:
[1] = xn = mol fraction of the nth substance listed; details: 318.15 K, 101.3 kPa, Liquid
[2] = excess molar enthalpy (molar enthalpy of mixing); xn = mol fraction of the nth substance listed; details: 318.15 K, 101.3 kPa, Liquid

CCCCCCCCCCCCC [tridecane] + CCCCOC(C)=O
Details | excess molar enthalpy [kcal/mol] | excess molar volume [m3/mol]
[1], x2 = 0.1024 | – | 3.78e-07
[1], x2 = 0.1769 | – | 5.73e-07
[1], x2 = 0.2511 | – | 7.35e-07
[1], x2 = 0.3192 | – | 8.56e-07
[1], x2 = 0.3845 | – | 9.36e-07
[1], x2 = 0.4434 | – | 9.93e-07
[1], x2 = 0.5021 | – | 1.014e-06
[1], x2 = 0.5481 | – | 1.023e-06
[1], x2 = 0.6023 | – | 1.006e-06
[1], x2 = 0.6495 | – | 9.59e-07
[1], x2 = 0.6914 | – | 9.14e-07
[1], x2 = 0.7346 | – | 8.49e-07
[1], x2 = 0.7647 | – | 7.97e-07
[1], x2 = 0.8473 | – | 5.94e-07
[1], x2 = 0.9072 | – | 3.95e-07
[1], x2 = 0.9586 | – | 1.65e-07
[2], x2 = 0.0771 | 0.0913 | –
[2], x2 = 0.166 | 0.17 | –
[2], x2 = 0.2551 | 0.238 | –
[2], x2 = 0.3371 | 0.286 | –
[2], x2 = 0.405 | 0.312 | –
[2], x2 = 0.4672 | 0.326 | –
[2], x2 = 0.5179 | 0.329 | –
[2], x2 = 0.5589 | 0.326 | –
[2], x2 = 0.5984 | 0.32 | –
[2], x2 = 0.6058 | 0.317 | –
[2], x2 = 0.64 | 0.306 | –
[2], x2 = 0.6863 | 0.286 | –
[2], x2 = 0.7361 | 0.259 | –
[2], x2 = 0.7879 | 0.224 | –
[2], x2 = 0.8426 | 0.183 | –
[2], x2 = 0.8971 | 0.13 | –
[2], x2 = 0.9531 | 0.0683 | –

CCCCCCCCCCCCC [tridecane] + COC(C)=O
Details | excess molar enthalpy [kcal/mol] | excess molar volume [m3/mol]
[1], x2 = 0.1152 | – | 6.95e-07
[1], x2 = 0.195 | – | 1.093e-06
[1], x2 = 0.2573 | – | 1.364e-06
[1], x2 = 0.3086 | – | 1.537e-06
[1], x2 = 0.357 | – | 1.665e-06
[1], x2 = 0.4302 | – | 1.838e-06
[1], x2 = 0.5045 | – | 1.919e-06
[1], x2 = 0.561 | – | 1.946e-06
[1], x2 = 0.6192 | – | 1.917e-06
[1], x2 = 0.666 | – | 1.849e-06
[1], x2 = 0.7125 | – | 1.753e-06
[1], x2 = 0.7495 | – | 1.651e-06
[1], x2 = 0.8399 | – | 1.288e-06
[1], x2 = 0.8997 | – | 9.51e-07
[1], x2 = 0.9425 | – | 6.18e-07
[1], x2 = 0.9745 | – | 2.97e-07
[2], x2 = 0.1268 | 0.197 | –
[2], x2 = 0.2391 | 0.341 | –
[2], x2 = 0.3316 | 0.448 | –
[2], x2 = 0.4097 | 0.517 | –
[2], x2 = 0.4693 | 0.553 | –
[2], x2 = 0.5214 | 0.571 | –
[2], x2 = 0.5635 | 0.578 | –
[2], x2 = 0.5965 | 0.581 | –
[2], x2 = 0.6319 | 0.574 | –
[2], x2 = 0.6706 | 0.559 | –
[2], x2 = 0.7114 | 0.534 | –
[2], x2 = 0.7533 | 0.504 | –
[2], x2 = 0.7939 | 0.461 | –
[2], x2 = 0.8383 | 0.402 | –
[2], x2 = 0.883 | 0.33 | –
[2], x2 = 0.9274 | 0.242 | –
[2], x2 = 0.9665 | 0.133 | –
